Data set [1] has as its system M. tuberculosis H37Rv. Nature of the data set: MIC by microplate alamar blue assay. The format is cell-based. The following applies: Mycobacterium tuberculosis, NA = no activity, read-out: MIC against M. tuberculosis H37Rv. (In general: Resazurin is reduced to fluorescent resorufin, in cell work by metabolically active cells.)
For data set [2], the system named is E. coli. Nature of the data set: MBC by subculturing. The class given is cell-based. The following applies: Escherichia coli. As to the method: (§1) The minimum bactericidal concentration (MBC) and minimum fungicidal concentration (MFC) of the synthesized benzimidazole derivatives was determined by subculturing 100 µl of culture from each tube that remained clear in MIC determination onto sterilized petri-plates containing fresh agar medium. The petri-plates were incubated and analyzed for microbial growth visually.

Data set [3] relates to B. subtilis. Nature of the data set: MBC by subculturing. The format is cell-based. As to the method:
as §1

Data set [4] has as its system S. aureus. Nature of the data set: MBC by subculturing. The class given is cell-based. The following applies: Staphylococcus aureus. As to the method:
as §1

For data set [5], the system named is S. typhi. The data set is described as follows: MBC by subculturing. The format is cell-based. The following applies: Salmonella enterica, read-out: MBC S. typhi. As to the method: as §1
In data set [6] the test system is B. cereus. The data set is described as follows: MBC by subculturing. The class given is cell-based. How it is done:
as §1

Data set [7] has as its system A. niger. Nature of the data set: microbe, parasite or virus in culture. The following applies: Aspergillus niger, 168 h, read-out: MIC A. niger.
In data set [8] the test system is B. subtilis. Nature of the data set: Tube dilution MIC. The following applies: Bacillus subtilis, 24 h, read-out: MIC B. subtilis.
Data set [9] relates to E. coli. Nature of the data set: Tube dilution MIC. The following applies: Escherichia coli, 24 h, read-out: MIC E. coli.
Data set [10] has as its system C. albicans. The data set is described as follows: microbe, parasite or virus in culture. The following applies: Candida albicans, 48 h, read-out: MIC C. albicans.
The subject of data set [11] is M. tuberculosis H37Rv (NCFT/TB/537). Nature of the data set: Well diffusion susceptibility test (zone of inhibition). The format is cell-based. The following applies: Mycobacterium tuberculosis, 672 h, read-out: Diameter of zone of inhibition against H37Rv (NCFT/TB/537), wells of 8 mm, 50 µg/ml test compound, 25 µg/ml standard drug, 4 weeks, NA = no activity. (A growth-free zone around the sample is the usual read-out of agar diffusion tests.)

Data set [12] can be described thus: In vivo LD50, ED50 and toxic dose in mice models. The following applies: mouse, dose that killed 50% of the mice population within the group. How it is done: The LD50 and ED50 were determined for the active compounds in mice models infected with Mycobacterium H37Rv (Table 4). […] Thus, ED50 of 1.34 mg/kg was considered safe for each of the compounds. It was observed that this dose was effective and safe for mice in different groups before infecting the mice models with specific TB bacteria as no mortality of any single animal was recorded.
The LD50 (lethal dose) and ED50 (optimum/effective dose) doses were determined for the active compounds in mice models infected with Mycobacterium H37Rv via ethical permission no., NCFT/EC/16/2313 assigned to Collaborative Research Group (CRG), NCFT, New Delhi, India.

The test system of data set [13] is S. aureus. The data set is described as follows: Tube dilution MIC. The following applies: Staphylococcus aureus, 24 h, read-out: MIC S. aureus.
Data set [14] concerns S. typhi. The data set is described as follows: Tube dilution MIC. The class given is cell-based. The following applies: Salmonella enterica, 24 h, read-out: MIC S. typhi.
Data set [15] concerns the target mycobacterial isocitrate lyase (Mycobacterium tuberculosis, UniProt P9WKK7). The data set is described as follows: Mycobacterial isocitrate lyase (ICL) assay. The format is biochemical, M. tuberculosis H37Rv. The following applies: read-out: Percent inhibition of enzyme, M. ICL activity. How it is done: The compounds found potent in in vivo evaluation were assayed for inhibition of mycobacterial enzymes viz., isocitrate lyase, pantothenate synthetase and chorismate mutase.
Isocitrate lyase activity was assayed according to the protocol reported by Dixon and Kornberg (glyoxylate phenyl hydrazone formation) at 10 μM of the compounds.

For data set [16], the system named is M. tuberculosis H37Rv. The data set is described as follows: Minimum lethal concentration (MLC). The format is cell-based. The following applies: Mycobacterium tuberculosis, NA = no activity, read-out: MLC against M. tuberculosis H37Rv.
Data set [17] relates to C. albicans. Nature of the data set: MFC by subculturing. The class given is cell-based. As to the method: as §1
Data set [18] concerns A. niger. The data set is described as follows: MFC by subculturing. The class given is cell-based. As to the method: as §1
The test system of data set [19] is B. cereus. The data set is described as follows: Tube dilution MIC. The following applies: Bacillus cereus, 24 h, read-out: MIC B. cereus.
Setting [20] is: Bacillus subtilis; read-out: MBC B. subtilis.
Where [21] appears, read: Bacillus cereus; read-out: MBC B. cereus.
Where [22] appears, read: Candida albicans; read-out: MFC C. albicans.
Where [23] appears, read: Aspergillus niger; read-out: MFC A. niger.

Each structure is given as a SMILES string. ≈ marks a conversion by molar mass, not a printed value. Like-named read-outs stand apart in the source and are kept apart here. A value given as a limit tells only on which side of the number the result lay.

Chain of mycobacterial isocitrate lyase (P9WKK7 whole entry): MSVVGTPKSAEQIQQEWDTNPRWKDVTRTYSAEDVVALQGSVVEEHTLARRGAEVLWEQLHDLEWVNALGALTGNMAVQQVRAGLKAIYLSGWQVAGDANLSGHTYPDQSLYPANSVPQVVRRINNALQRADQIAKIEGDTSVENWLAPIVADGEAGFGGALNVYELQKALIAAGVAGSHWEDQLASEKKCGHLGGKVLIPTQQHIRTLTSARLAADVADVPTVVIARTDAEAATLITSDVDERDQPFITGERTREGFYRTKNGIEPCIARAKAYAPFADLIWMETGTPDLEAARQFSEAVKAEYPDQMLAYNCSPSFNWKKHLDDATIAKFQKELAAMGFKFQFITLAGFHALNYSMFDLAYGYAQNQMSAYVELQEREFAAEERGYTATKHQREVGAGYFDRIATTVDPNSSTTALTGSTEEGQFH

In the case of `COc1ccccc1NC(=O)CSc1nc2ccccc2n1C(=O)c1ccccc1` [Compound 17, 2-(1-Benzoyl-1H-benzo[d]imidazol-2-ylthio)-N-(2-methoxyphenyl)acetamide], the MIC in [1] is 12.5 µg/mL (≈ 29.9 µM); in data set [7], 30 µM (≈ 12.5 µg/mL); in data set [8], 30 µM (≈ 12.5 µg/mL); in data set [9], 30 µM (≈ 12.5 µg/mL); in data set [10] it was 15 µM (≈ 6.26 µg/mL); in [13], 30 µM (≈ 12.5 µg/mL). Further, the MIC in [14] and in data set [19] was 30 µM (≈ 12.5 µg/mL) in each case. For the same compound, the MBC is over 50 µg/mL in data set [2]; over 50 µg/mL in data set [3] (Bacillus subtilis, read-out: MBC B. subtilis); 50 µg/mL (≈ 120 µM) in data set [4]; over 50 µg/mL in [5]; over 50 µg/mL in data set [6] (Bacillus cereus, read-out: MBC B. cereus); 25 µg/mL (≈ 59.9 µM) in data set [16]. Further, in data set [11], the zone of inhibition at 50 µg/mL is over 20 mm. Moreover, the LD50 (commonly the dose expected to kill half of the subjects tested) in [12] was found to be 3.17 mg/kg. The inhibition (in general, the percentage by which the read-out fell short of the control) at 10 µM in data set [15] was 43.5%. Moreover, the MFC (as a rule, the smallest concentration meeting the test's criterion for killing the fungus) is 50 µg/mL (≈ 120 µM) in data set [17] (Candida albicans, read-out: MFC C. albicans) and over 50 µg/mL in data set [18] (Aspergillus niger, read-out: MFC A. niger).
For the compound `Cc1cccc(NC(=O)CSc2nc3ccccc3n2C(=O)c2ccccc2)c1` [Compound 19, 2-(1-Benzoyl-1H-benzo[d]imidazol-2-ylthio)-N-m-tolylacetamide], the MBC in data set [2] is over 50 µg/mL; in data set [3] (setting [20]) it was 50 µg/mL (≈ 125 µM); in data set [4] it was 50 µg/mL (≈ 125 µM); in data set [5], over 50 µg/mL; in data set [6] (setting [21]), over 50 µg/mL. Besides, the MIC in data set [7] was determined as 31 µM (≈ 12.4 µg/mL); in [8], 31 µM (≈ 12.4 µg/mL); in [9] it was 31 µM (≈ 12.4 µg/mL); in data set [10] it was 16 µM (≈ 6.42 µg/mL); in data set [13] it was 31 µM (≈ 12.4 µg/mL); in data set [14] it was 31 µM (≈ 12.4 µg/mL). Also, the MIC in data set [19] amounted to 31 µM (≈ 12.4 µg/mL). The values for the MFC in data set [17] (setting [22]) and in data set [18] (setting [23]) were 50 µg/mL (≈ 125 µM) and over 50 µg/mL, respectively.
In the case of `Cc1ccc(NC(=O)CSc2nc3ccccc3n2C(=O)c2ccccc2)c(C)c1` [Compound 20, 2-(1-Benzoyl-1H-benzo[d]imidazol-2-ylthio)-N-(2,4-dimethylphenyl)acetamide], the MIC in [1] was 15 µg/mL (≈ 36.1 µM); in [7], 30 µM (≈ 12.5 µg/mL); in data set [8], 30 µM (≈ 12.5 µg/mL); in data set [9] it was 30 µM (≈ 12.5 µg/mL); in [10], 15 µM (≈ 6.23 µg/mL); in data set [13] it was 30 µM (≈ 12.5 µg/mL). The MIC in data set [14] and in data set [19] was 30 µM (≈ 12.5 µg/mL) in each case. For the same compound, the MBC is over 50 µg/mL in [2]; 50 µg/mL (≈ 120 µM) in data set [3] (setting [20]); 50 µg/mL (≈ 120 µM) in data set [4]; 50 µg/mL (≈ 120 µM) in data set [5]; over 50 µg/mL in data set [6] (setting [21]); 28 µg/mL (≈ 67.4 µM) in data set [16]. Besides, the zone of inhibition at 50 µg/mL in data set [11] is 10 mm. For the same compound, the MFC is 25 µg/mL (≈ 60.2 µM) in data set [17] (setting [22]) and over 50 µg/mL in data set [18] (setting [23]).
For `OC(Cn1cncn1)(Cn1cncn1)c1ccc(F)cc1F` [Fluconazole, reference compound], the MIC in [7] and in data set [10] was 470 µM (≈ 144 µg/mL) throughout.
For the compound `[H]/N=C(/N)N[C@H]1[C@H](O)[C@@H](O)[C@H](O[C@@H]2O[C@@H](C)[C@](O)(C=O)[C@H]2O[C@@H]2O[C@@H](CO)[C@H](O)[C@@H](O)[C@@H]2NC)[C@@H](N/C(N)=N\[H])[C@@H]1O` [Streptomycin sulphate, streptomycin sulphate, reference compound], the inhibition at 10 µM in data set [15] is 75.1%.
Consider `[H]/N=C(/N)N[C@H]1[C@H](O)[C@@H](O)[C@H](O[C@@H]2O[C@@H](C)[C@](O)(C=O)[C@H]2O[C@@H]2O[C@@H](CO)[C@H](O)[C@@H](O)[C@@H]2NC)[C@@H](N/C(N)=N\[H])[C@@H]1O` [Streptomycin, reference compound], for which the MIC in data set [1] turned out to be 12.5 µg/mL (≈ 21.5 µM). For the same compound, the zone of inhibition at 50 µg/mL in [11] was over 20 mm. The MBC in data set [16] was 25 µg/mL (≈ 43 µM).

For the origin of these results see PMC5971037, “Synthesis and evaluation of antimicrobial, antitubercular and anticancer activities of 2-(1-benzoyl-1H-benzo[d]imidazol-2-ylthio)-N-substituted acetamides” (Chemistry Central Journal, 2018).
